Data from patent publication US20250304622A1, “SHORT APOLIPOPROTEIN E MIMETIC PEPTIDES AND METHODS OF USE” (The United States of America, as represented by the …, priority 2022, published 2025).
Numbered stars: 1 amine (or outer) side, 2 acyl side, 3 side chain; on linkers, the order of the positions; unused ones are H or OH. Bridge positions count the residues as written; N and C are the ends. Square brackets hold non-standard residues; d marks the D form. Primed or numbered codes have the meaning given here. * marks the point of attachment. B5 = bis-pentenylglycine, C=CCCCC(CCCC=C)(N[*:1])C(=O)[*:2]; R8 = C=CCCCCCC[C@@](C)(N)C(=O)O; S8 = C=CCCCCCC[C@](C)(N)C(=O)O; αMeL = CC(C)C[C@](C)(N)C(=O)O; Octanoyl′ = not defined here; S5 = C=CCCC[C@](C)(N)C(=O)O; Myristyl = CCCCCCCCCCCCCC*; Octanoyl = CCCCCCCC(=O)*

What was measured:
[1] = tested on: ApoE-ko mice; experiment: Single dose study in ApoE-ko mice, plasma total cholesterol and triglycerides; assay type: in vivo; conditions: for lowering of plasma total cholesterol: ApoE-KO mice, 2.5 μmol/kg i.v. single dose, FIG. 20A; for plasma total cholesterol / plasma triglyceride levels: ApoE-ko mice, 4.6 mg/kg (2.5 μmol/kg) intravenous; for plasma total cholesterol: FIG. 10A; for plasma triglyceride levels: effect transient, FIG. 10B
Procedure: The effect of OctaC-E139-150 and OctaN-E139-150 peptides were tested in ApoE-ko mice. The mice were kept on a normal chow diet. At 3.5 months of age, 15 mice were divided into three groups of five mice each, as follows: 1) control group; 2) OctaC-E139-150 peptide group; and 3) OctaN-E139-150 peptide group. Peptides were dissolved in PBS at 1.5 mg/ml (810 μM OctaC-E139-150; 849 μM OctaN-E139-150). Mice were weighed one day before peptide administration and peptide amount was calculated for each mouse to receive 4.6 mg/kg peptide (2.5 μmol/kg). The calculated amount of 1.5 mg/ml peptide was placed in a syringe and normalized with PBS to 80 μl. The mice received intravenous injection of PBS (control) or the peptide. Blood samples were collected immediately prior to injection, and 1 hour, 3 hours, and 6 hours after injection. Blood was centrifuged at 3000 rpm at 4° C. for 20 minutes and plasma was separated (20-30 μl) and stored at 4° C. Plasma triglycerides and total cholesterol were measured the next day using L-type triglyceride M assay and The cholesterol E kit (Wako, FUJIFILM Medical Systems USA).
MyrN-E139-150 and OctaN-E139-150 peptides were tested in a single dose ApoE-KO mouse study. ApoE-KO mice (n=9) were divided into 3 groups: control group (PBS), n=3; MyrN-E139-150 (2.5 μmol/kg; 4.6 mg/kg), n=3; and OctaN-E139-150 (2.5 μmol/kg; 4.4 mg/kg), n=3. Mice were fed normal chow diet for the whole study. Peptides were injected i.v. and blood samples were collected at pre-injection and 1 h, 3 h, and 6 h after the injection of the peptides. Measurement of plasma total cholesterol and triglycerides was as described in Example 2. The peptides lowered plasma total cholesterol (FIG. 20A; 37% at 3 h; 29% at 6 h) and triglycerides (FIG. 20B; 30-50% at 1 h).

[2] = tested on: WT HepG2 cells; experiment: Effect of heparin on peptide mediated LDL uptake in WT HepG2 cells; assay type: cell-based; conditions: 10 μM peptide, heparin 10 USP/ml, 1 h at 37° C., FIG. 19
Procedure: Fluorescently labeled LDL (Alexa Fluor 568-NHS ester) at 50 μg/ml final protein concentration was preincubated with or without 10 μM MyrN-E141-150-amL peptide for 30 min at 37° C. (solutions made in DMEM (no phenol red, no serum) with 0.1% BSA). To some LDL and some LDL/peptide samples, heparin was added (10 USP/ml final conc.; heparin, sodium injection from porcine intestinal mucosa (Fresenius Kabi USA, Lake Zurich, IL)). Mixtures were preincubated for additional 5 min at 37° C. Next, WT HepG2 cells were incubated with the LDL/peptide/heparin mixtures for 1 h at 37° C. Lipoprotein uptake was assessed by flow cytometry. Heparin diminished the effect of MyrN-E141-150-amL peptide on LDL uptake in the wild type HepG2 cells (FIG. 19).

[3] = tested on: LDLR-KO mice; experiment: Single dose LDLR-KO mouse study, plasma total cholesterol; assay type: in vivo; conditions: 2.5 μmol/kg (4.6 mg/kg) i.v. single dose, after 3 h and 6 h of injection, FIG. 21A
Procedure: MyrN-E141-150-amL and OctaN-E141-150 were tested in a single dose LDLR-KO mouse study. LDLR-KO mice (n=9) were divided into 3 groups: control group (PBS), n=3; MyrN-E141-150-amL (2.5 μmol/kg; 4.6 mg/kg), n=3; and OctaN-E141-150 (2.5 μmol/kg; 4.4 mg/kg), n=3. Mice were fed normal chow diet for the whole study. Peptides were injected i.v. and blood samples were collected at pre-injection and 1 h, 3 h, 6 h and 24 h after the injection of the peptides. Measurement of plasma total cholesterol was as described in Example 2. MyrN-E141-150-amL lowered plasma total cholesterol around 15-30% after 3 h and 6 h of injection (FIG. 21A).

[4] = tested on: WT HepG2 cells; experiment: LDL uptake by heparinase treated WT HepG2 cells; assay type: cell-based; conditions: Heparinase I, II, and III pretreatment
Procedure: (§1) Involvement of heparan sulfate proteoglycans (HSPGs) in peptide-mediated LDL uptake was tested. WT HepG2 cell were pretreated with a mixture of Heparinase I, II, and III (IBEX Pharmaceuticals) to degrade heparan sulfate chains on the cell surface. Next, LDL uptake studies were performed with OctaC-E139-150-S and MyrN-E141-150-amL peptides (FIGS. 18A-18C). […] Similarly, heparinase treatment attenuated MyrN-E141-150-amL mediated LDL uptake in WT HepG2 cells (FIG. 18C).

[5] = tested on: Mouse Hepatitis Virus (MHV); experiment: MHV-GFP replication in HeLa mCC1a cells; assay type: cell-based; conditions: 15 μM peptide, 16 hours, FIG. 11
Excerpt: Mouse Hepatitis Virus (MHV) is a beta coronavirus that infects mice cells via the murine CEACAM1 receptor (mCC1a receptor). HeLa (human epithelium) cells that have been modified to express the mCC1a receptor can be infected with MHV. The recombinant MHV used in this experiment has been modified such that it contains additional nucleocapsid (N) protein segment which is N-terminally fused with a green fluorescence protein tag (GFP) (see Verheije et al., J. Virol. 84:11575-11579, 2010). When cells are infected with MHV, the MHV replicates generating more GFP and increasing the fluorescent signal.
HeLa mCC1a cells were cultured in a 96 well plate. Cells were infected for 2 hours with MHV-GFP at 37° C. Viral stock solution was diluted 40-fold. Stock was prepared by infecting HeLa cells with MHV-GFP for 3 days and by collecting cellular media. Cells were washed with PBS and treated with media (DMEM plus 10% FBS, 100 IU/ml penicillin G, […] streptomycin, 0.5 mg/ml G418) containing ApoE peptides (15 μM) or media without peptide and incubated for 16 hours at 37° C. Cells were washed with PBS and total GFP fluorescence (ex/em 488/520) in cells was measured on the plate using a fluorescence plate reader.

[6] = tested on: LDLR-ko HepG2 cells; experiment: LDL uptake by heparinase treated LDLR-KO HepG2 cells; assay type: cell-based; conditions: heparinase pretreatment, FIG. 18B
Procedure: as §1

[7] = low peptide dose, FIGS. 18A, 18C

Myristyl-SH(R8)RKLRKR(S5)LR-NH2 (Myristyl-SH[R8]RKLRKR[S5]LR-NH2; staple 3-10; SMILES CCCCCCCCCCCCCCN[C@@H](CO)C(=O)N[C@@H](Cc1c[nH]cn1)C(=O)N[C@]1(C)CCCCCCC=CCCC[C@@](C)(C(=O)N[C@@H](CC(C)C)C(=O)N[C@@H](CCCNC(=N)N)C(N)=O)NC(=O)[C@H](CCCNC(=N)N)NC(=O)[C@H](CCCCN)NC(=O)[C@H](CCCNC(=N)N)NC(=O)[C@H](CC(C)C)NC(=O)[C@H](CCCCN)NC(=O)[C@H](CCCNC(=N)N)NC1=O) [MyrN-E139-150]
lowering of plasma total cholesterol ([1]; at 3 h): 37% | lowering of plasma total cholesterol ([1]; at 6 h): 29%

Octanoyl-SH(R8)RKLRKR(S5)LR-NH2 (Octanoyl-SH[R8]RKLRKR[S5]LR-NH2; staple 3-10; SMILES CCCCCCCC(=O)N[C@@H](CO)C(=O)N[C@@H](Cc1c[nH]cn1)C(=O)N[C@]1(C)CCCCCCC=CCCC[C@@](C)(C(=O)N[C@@H](CC(C)C)C(=O)N[C@@H](CCCNC(=N)N)C(N)=O)NC(=O)[C@H](CCCNC(=N)N)NC(=O)[C@H](CCCCN)NC(=O)[C@H](CCCNC(=N)N)NC(=O)[C@H](CC(C)C)NC(=O)[C@H](CCCCN)NC(=O)[C@H](CCCNC(=N)N)NC1=O) [OctaN-E139-150]
lowering of plasma total cholesterol ([1]; at 3 h): 37% | lowering of plasma total cholesterol ([1]; at 6 h): 29% | plasma total cholesterol [1]: significantly decreased | plasma triglyceride levels [1]: significantly decreased

Myristyl-(R8)RKLRKR(S5)L(alpha-methyl)R-NH2 (Myristyl-[R8]RKLRKR[S5][αMeL]R-NH2; staple 1-8; SMILES CCCCCCCCCCCCCCN[C@]1(C)CCCCCCC=CCCC[C@@](C)(C(=O)N[C@@](C)(CC(C)C)C(=O)N[C@@H](CCCNC(=N)N)C(N)=O)NC(=O)[C@H](CCCNC(=N)N)NC(=O)[C@H](CCCCN)NC(=O)[C@H](CCCNC(=N)N)NC(=O)[C@H](CC(C)C)NC(=O)[C@H](CCCCN)NC(=O)[C@H](CCCNC(=N)N)NC1=O) [MyrN-E141-150-amL]
effect of heparin on peptide effect on LDL uptake [2]: diminished | lowering of plasma total cholesterol [3]: 15-30% | effect of heparinase treatment on peptide mediated LDL uptake [4, 7]: attenuated

Ac-RVR(S5)ASH(B5)RKLRKR(S8)LR-NH2 (Ac-RVR[S5]ASH[B5]RKLRKR[S8]LR-NH2; staple 8-15, 4-8) [E134-150-Stitch]
MHV-GFP fluorescence (viral replication) [5]: dramatic reductions

Ac-SH(R8)RKLRKR(S5)LR-Octanoyl (Ac-SH[R8]RKLRKR[S5]LR-{Octanoyl′}; staple 3-10) [OctaC-E139-150]
effect of heparinase treatment on peptide mediated LDL uptake [6]: showed similar results | effect of heparinase treatment on peptide mediated LDL uptake ([4]; higher peptide concentrations, FIG. 18A): heparinase treatment had a lower effect | effect of heparinase treatment on peptide mediated LDL uptake [4, 7]: diminished low dose peptide effect on LDL uptake | MHV-GFP fluorescence (viral replication) [5]: dramatic reductions | plasma total cholesterol [1]: significantly decreased | plasma triglyceride levels [1]: significantly decreased
